Reference: patent US8765773B2, “Substituted hydroxamic acids and uses thereof” (Millennium Pharmaceuticals, Inc., priority 2010, dated 2014)

molecular target: T1, purified human HDAC6 (Homo sapiens, UniProt Q9UBN7); assay: HDAC6 Enzyme Assay; assay type: biochemical; details: compound concentration 0.37 μM, read-out: Percent Inhibition
T1 construct: purchased BPS Bioscience 5006
T1 sequence (Q9UBN7 1-1215): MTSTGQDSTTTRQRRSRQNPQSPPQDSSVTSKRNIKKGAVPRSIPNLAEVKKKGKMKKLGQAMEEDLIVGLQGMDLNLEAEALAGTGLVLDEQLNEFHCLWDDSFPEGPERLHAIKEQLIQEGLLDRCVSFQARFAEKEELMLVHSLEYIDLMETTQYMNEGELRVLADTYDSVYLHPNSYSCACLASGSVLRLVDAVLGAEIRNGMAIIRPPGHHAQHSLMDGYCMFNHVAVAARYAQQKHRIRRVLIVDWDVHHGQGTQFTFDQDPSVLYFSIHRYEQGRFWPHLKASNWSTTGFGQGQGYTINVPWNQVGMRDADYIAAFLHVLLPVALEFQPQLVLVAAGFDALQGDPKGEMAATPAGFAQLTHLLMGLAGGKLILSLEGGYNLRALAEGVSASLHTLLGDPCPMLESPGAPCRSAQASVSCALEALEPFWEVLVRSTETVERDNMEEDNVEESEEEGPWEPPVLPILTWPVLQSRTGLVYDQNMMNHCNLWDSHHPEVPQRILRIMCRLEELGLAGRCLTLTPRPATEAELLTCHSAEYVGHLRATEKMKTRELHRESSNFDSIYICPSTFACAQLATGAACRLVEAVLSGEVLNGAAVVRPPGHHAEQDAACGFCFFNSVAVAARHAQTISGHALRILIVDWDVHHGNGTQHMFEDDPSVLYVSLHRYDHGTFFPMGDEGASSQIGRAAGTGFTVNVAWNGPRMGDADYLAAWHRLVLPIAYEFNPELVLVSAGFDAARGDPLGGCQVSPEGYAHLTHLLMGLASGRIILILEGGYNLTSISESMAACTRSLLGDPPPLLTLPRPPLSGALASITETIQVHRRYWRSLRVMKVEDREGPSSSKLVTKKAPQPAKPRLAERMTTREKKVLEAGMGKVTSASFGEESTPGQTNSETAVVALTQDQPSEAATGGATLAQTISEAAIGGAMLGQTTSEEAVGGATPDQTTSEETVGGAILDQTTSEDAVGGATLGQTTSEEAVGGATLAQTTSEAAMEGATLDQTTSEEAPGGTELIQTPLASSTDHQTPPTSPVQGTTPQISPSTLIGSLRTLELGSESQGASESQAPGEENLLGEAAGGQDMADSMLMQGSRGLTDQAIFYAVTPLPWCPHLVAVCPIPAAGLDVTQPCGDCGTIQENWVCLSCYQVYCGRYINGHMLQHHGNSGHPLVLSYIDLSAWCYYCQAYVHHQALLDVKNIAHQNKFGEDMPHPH
In short: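 Readout is AMC fluorescence (Ex 340 nm, Em 460 nm) after trypsin cleavage of the deacetylated Ac-Arg-Gly-Lys(Ac)-AMC product. Reaction: purified human HDAC6, compound or vehicle, 1 hour, 30° C, quenched by trichostatin A. Single-concentration percent inhibition or IC50 calculated versus DMSO-treated samples.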

inhibition at 0.37 µM [%]	Compound
90.5	Cc1noc(C)c1-c1cccc(CCn2cnc3ccc(C(=O)NO)cc3c2=O)c1 [Compound I-336, 3-{2-[3-(3,5-dimethylisoxazol-4-yl)phenyl]ethyl}-N-hydroxy-4-oxo-3,4-dihydroquinazoline-6-carboxamide]
91.6	O=C(NO)c1ccc2ncn(CCc3cccc(-c4cccc(C(F)(F)F)c4)c3)c(=O)c2c1 [Compound I-311, N-hydroxy-4-oxo-3-{2-[3′-(trifluoromethyl)biphenyl-3-yl]ethyl}-3,4-dihydroquinazoline-6-carboxamide]
92	CC(C)(C)C(=O)Nc1ncccc1-c1cccc(CCn2cnc3ccc(C(=O)NO)cc3c2=O)c1 [Compound I-327, 3-[2-(3-{2-[(2,2-dimethylpropanoyl)amino]pyridin-3-yl}phenyl)ethyl]-N-hydroxy-4-oxo-3,4-dihydroquinazoline-6-carboxamide]
86.4	O=C(NO)c1ccc2ncn(CCc3cccc(-c4csc5ccccc45)c3)c(=O)c2c1 [Compound I-318, 3-{2-[3-(1-benzothien-3-yl)phenyl]ethyl}-N-hydroxy-4-oxo-3,4-dihydroquinazoline-6-carboxamide]
90.4	COc1ncccc1-c1cccc(CCn2cnc3ccc(C(=O)NO)cc3c2=O)c1 [Compound I-320, N-hydroxy-3-{2-[3-(2-methoxypyridin-3-yl)phenyl]ethyl}-4-oxo-3,4-dihydroquinazoline-6-carboxamide]
76.2	O=C(NO)c1ccc2ncn(CCc3cccc(-c4cccc(OC(F)(F)F)c4)c3)c(=O)c2c1 [Compound I-312, N-hydroxy-4-oxo-3-{2-[3′-(trifluoromethoxy)biphenyl-3-yl]ethyl}-3,4-dihydroquinazoline-6-carboxamide]
94.9	O=C(NO)c1ccc2c(=O)[nH]c(CCc3ccccc3)nc2c1 [Compound I-408, N-hydroxy-4-oxo-2-(2-phenylethyl)-3,4-dihydroquinazoline-7-carboxamide]
87.7	O=C(NO)c1ccc2ncn(CCc3cccc(-c4cccc(Cl)c4)c3)c(=O)c2c1 [Compound I-316, 3-[2-(3′-chlorobiphenyl-3-yl)ethyl]-N-hydroxy-4-oxo-3,4-dihydroquinazoline-6-carboxamide]
92.2	O=C(NO)c1ccc2c(=O)n(Cc3ccc(C(F)(F)F)cc3)c(-c3cccnc3)nc2c1 [Compound I-133, N-hydroxy-4-oxo-2-pyridin-3-yl-3-[4-(trifluoromethyl)benzyl]-3,4-dihydroquinazoline-7-carboxamide]
83.8	CN(C)S(=O)(=O)c1cccc(-c2cccc(CCn3cnc4ccc(C(=O)NO)cc4c3=O)c2)c1 [Compound I-309, 3-(2-{3′-[(dimethylamino)sulfonyl]biphenyl-3-yl}ethyl)-N-hydroxy-4-oxo-3,4-dihydroquinazoline-6-carboxamide]
89.9	COc1cccc(-c2cccc(CCn3cnc4ccc(C(=O)NO)cc4c3=O)c2)c1 [Compound I-339, N-hydroxy-3-[2-(3′-methoxybiphenyl-3-yl)ethyl]-4-oxo-3,4-dihydroquinazoline-6-carboxamide]
56.7	Cc1ccc(Cc2nc3cc(C(=O)NO)ccc3c(=O)[nH]2)c(C)c1 [Compound I-417, 2-(2,4-dimethylbenzyl)-N-hydroxy-4-oxo-3,4-dihydroquinazoline-7-carboxamide]
93	O=C(NO)c1ccc2ccn(-c3ccc(Cl)cc3)c(=O)c2c1 [Compound I-247, 2-(4-chlorophenyl)-N-hydroxy-1-oxo-1,2-dihydroisoquinoline-7-carboxamide]
65.5	O=C(NO)c1ccc2c(=O)n(Cc3ccc(C(F)(F)F)cc3)c(CC3CCCCC3)nc2c1 [Compound I-53, 2-(cyclohexylmethyl)-N-hydroxy-4-oxo-3-[4-(trifluoromethyl)benzyl]-3,4-dihydroquinazoline-7-carboxamide]

same assay, conditions: compound concentration 0.412 μM, read-out: Percent Inhibition

inhibition at 0.412 µM [%]	Compound
96.3	O=C(NO)c1ccc2ccn(CCCOc3ccc(-n4ccnc4)cc3)c(=O)c2c1 [Compound I-129, N-hydroxy-2-{3-[4-(1H-imidazol-1-yl)phenoxy]propyl}-1-oxo-1,2-dihydroisoquinoline-7-carboxamide]
91.3	CCN(CC)c1cccc(OCCn2ccc3ccc(C(=O)NO)cc3c2=O)c1 [Compound I-159, 2-{2-[3-(diethylamino)phenoxy]ethyl}-N-hydroxy-1-oxo-1,2-dihydroisoquinoline-7-carboxamide]
80.9	O=C(NO)c1ccc2ccn(CC(c3ccccc3)C3CCCCC3)c(=O)c2c1 (stereo not drawn) [Compound I-96, 2-(2-cyclohexyl-2-phenylethyl)-N-hydroxy-1-oxo-1,2-dihydroisoquinoline-7-carboxamide]
89.9	O=C(NO)c1ccc2ccn(CCCC3CCCCC3)c(=O)c2c1 [Compound I-153, 2-(3-cyclohexylpropyl)-N-hydroxy-1-oxo-1,2-dihydroisoquinoline-7-carboxamide]
94.9	O=C(NO)c1ccc2ccn(Cc3c(Cl)cccc3Cl)c(=O)c2c1 [Compound I-7, 2-(2,6-dichlorobenzyl)-N-hydroxy-1-oxo-1,2-dihydroisoquinoline-7-carboxamide]
26.2	O=C(NO)c1ccc2c(=O)[nH]c(C(=O)NC3CCNCC3)nc2c1 [Compound I-278, N^7-hydroxy-4-oxo-N^2-piperidin-4-yl-3,4-dihydroquinazoline-2,7-dicarboxamide]
95.5	O=C(NO)c1ccc2ccn(CCCOc3ccc4c(c3)OCO4)c(=O)c2c1 [Compound I-191, 2-[3-(1,3-benzodioxol-5-yloxy)propyl]-N-hydroxy-1-oxo-1,2-dihydroisoquinoline-7-carboxamide]
59.5	Cn1c(NCc2ccc(Cl)cc2)nc2ccc(C(=O)NO)cc2c1=O [Compound I-165, 2-[(4-chlorobenzyl)amino]-N-hydroxy-3-methyl-4-oxo-3,4-dihydroquinazoline-6-carboxamide]
85.1	O=C(Cn1cnc2ccc(C(=O)NO)cc2c1=O)c1ccc(N2CCCC2)cc1 [Compound I-273, N-hydroxy-4-oxo-3-[2-oxo-2-(4-pyrrolidin-1-ylphenyl)ethyl]-3,4-dihydroquinazoline-6-carboxamide]
95.1	O=C(NO)c1ccc2ccn(Cc3c(F)cccc3Cl)c(=O)c2c1 [Compound I-187, 2-(2-chloro-6-fluorobenzyl)-N-hydroxy-1-oxo-1,2-dihydroisoquinoline-7-carboxamide]
77.7	O=C(NO)c1ccc2c(=O)n(CCc3ccccn3)c(C3CCCCC3)nc2c1 [Compound I-6, 2-cyclohexyl-N-hydroxy-4-oxo-3-(2-pyridin-2-ylethyl)-3,4-dihydroquinazoline-7-carboxamide]
83.2	COc1ccc(N(CCn2ccc3ccc(C(=O)NO)cc3c2=O)Cc2ccc(Cl)cc2)cc1 [Compound I-229, 2-{2-[(4-chlorobenzyl)(4-methoxyphenyl)amino]ethyl}-N-hydroxy-1-oxo-1,2-dihydroisoquinoline-7-carboxamide]
16.1	O=C(NO)c1ccc2c(=O)n(-c3ccccc3)c(=O)[nH]c2c1 [Compound I-195, N-hydroxy-2,4-dioxo-3-phenyl-1,2,3,4-tetrahydroquinazoline-7-carboxamide]
97.7	O=C(NO)c1ccc2ccn(CCOc3ccc(Cl)cc3)c(=O)c2c1 [Compound I-246, 2-[2-(4-chlorophenoxy)ethyl]-N-hydroxy-1-oxo-1,2-dihydroisoquinoline-7-carboxamide]
87	CC(C)n1ccc2ccc(C(=O)NO)cc2c1=O [Compound I-171, N-hydroxy-2-isopropyl-1-oxo-1,2-dihydroisoquinoline-7-carboxamide]
96.4	O=C(NO)c1ccc2c(=O)n(CCOc3ccccc3)cnc2c1 [Compound I-22, N-hydroxy-4-oxo-3-(2-phenoxyethyl)-3,4-dihydroquinazoline-7-carboxamide]
